One series has as its system C57B1/6J mice. The series can be described thus: Ethanol aversion in C57B1/6J mice, free choice of water and 5% ethanol. The format is in vivo, mouse. The following applies: for 5% alcohol daily consumption: 2 mg./kg. i.p. at 12 hourly intervals; for 5% alcohol daily consumption / Water daily consumption: N = 8. Here is the method:
Adult male C57B1/6J mice weighing 20-25 g. were then placed into individual cages equipped with two small drinking tubes, one filled with water and the other with 5% ethanol in water. Food, water and alcohol solution were available ad libitum and the daily consumption of each was recorded at 10 a.m. The positions of the tubes were interchanged daily and different tubes were ocassionally substituted. After a period of 4 days to establish a reference base for alcohol and water consumption respectively, the animals were treated by intraperitoneal injection with 2 mg./kg. of body weight of trans-4-[2-(1-naphthyl)vinyl]-pyridine hydrochloride at 12 hourly intervals on the 5th and 6th days. Drug treatment was terminated on the 6th day and the animals were kept for an additional two days. The average values of water, 5% alcohol, and total fluid intake for each of these 8 days of the experiment are shown in the following table.

The nature of series [1]: Dose without significant effect on water or total fluid intake. The following applies: mouse, in vivo, ip; intraperitoneal injection at 12 hourly intervals, read from dose graph; read-out: Dose which has no significant effect on water or total fluid intake. The source says:
The dose of the choline acetylase inhibitor when administered according to the present invention is selected to cause effective aversion to alcohol consumption. Effective aversion is intended to mean either the complete lack of compulsion to consume alcohol or at least a reduction of the compulsion to a point where the subject may consume alcohol in a strictly elective manner without being dependent thereon. The dose is also selected to be substantially free of undesirable side effects. By this is meant that the side effects are at most of a trivial nature and unimportant relative to the benefit derived from the treatment. One effect of excessive dosage with a choline acetylase inhibitor is a reduction in water consumption. […]
The dose of trans-4-[2-(1-naphthyl)vinyl]pyridine hydrochloride which has no significant effect on water or total fluid intake of these animals was determined to be 2 mg./kg. This was determined by intraperitoneal injection of trans-4-[2-(1-naphthyl)vinyl]pyridine hydrochloride at 12 hourly intervals during the test period at various dosage concentrations for various groups of mice. […]

In series [2] the test system is rats trained on a conditioned avoidance procedure. The following applies: 2.0 mg./kg. intraperitoneally, 3 hr. session; cited from earlier work.
The mark [3] stands for this setting: day 5, 2 mg./kg. i.p. at 12 hourly intervals.
The mark [4] stands for this setting: day 6, 2 mg./kg. i.p. at 12 hourly intervals.

`C(=C\c1cccc2ccccc12)/c1ccncc1.Cl` [N V P, trans-4-[2-(1-naphthyl)vinyl]pyridine hydrochloride]: in the series on C57B1/6J mice (5th and 6th days, 2 mg./kg. i.p., about 65% without drug), the “Alcohol consumption as share of the daily fluid intake on the days of drug treatment” value is reported as “about 42%”. For the same compound, in the series on C57B1/6J mice (8-day experiment, drug on days 5 and 6), the “Total daily fluid intake during the experimental period” value was “remained substantially constant”. Further, in the series with C57B1/6J mice (day 5 (first treatment day)), the “5% alcohol daily consumption” value was 60 ± 2 mL/kg. Further, in the series with C57B1/6J mice (setting [3]), the “5% alcohol as % of total daily fluid intake” value is on record as 34%, the “Total daily fluid consumption” value worked out at 177 mL/kg and the Water daily consumption was found to be 117 ± 4 mL/kg. The “5% alcohol daily consumption” value in the series on C57B1/6J mice (day 6 (second treatment day)) was 82 ± 3 mL/kg. In addition, in the series on C57B1/6J mice (setting [4]), the “5% alcohol as % of total daily fluid intake” value is 43%, the “Total daily fluid consumption” value was determined as 193 mL/kg and the Water daily consumption amounted to 111 ± 4 mL/kg. The “Water and alcohol intakes on cessation of drug treatment” value in the series with C57B1/6J mice (days 7 and 8, after drug treatment ended) is on record as “returned substantially to their pretreatment values”. Besides, the NOAEL in series [1] was found to be 2 mg/kg.

`CC(N)Cc1ccccc1` (stereo not shown) [amphetamine]: the “Increase in the response rate” value in series [2] is around 75%.
